Assay results from patent US9522935B2, “Commands and method of treating cancer via RHO pathway” (priority 2013, dated 2016).

How the values were obtained:
HepG2 cells = assay: MTT assay, compounds related to LD030 on HepG2 cells; assay type: cell-based, human; settings: 48 hours; for inhibition at 0.1 µM / inhibition at 1 µM / inhibition at 10 µM / inhibition at 100 µM: Homo sapiens, HepG2, read-out: Effects on HepG2 Cells (inhibitory percentage)
Description: (§1) MTT assay was used to detect cell viability after being treated with different compounds of the present invention related to LD030. The cell lines treated were on non-small lung cancer cell line A549, HepG2 cells and Panc1 cells.
(§2) MTT preservation solution preparation: 0.5 g MTT was dissolved in 100 ml of phosphate buffer solution (PBS), and bacteria contaminates were removed with a 0.22 μm membrane filter to obtain 0.5% MTT solution, which was stored in the dark at −20° C.
(§3) MTT working solution preparation: MTT preservation solution was diluted 10 times with sterile PBS to obtain MTT working solution.
(§4) 1640 complete medium preparation: 1640 base medium was added with an amount of fetal bovine serum (FBS) so that the medium contains 10% FBS by volume. Then an amount of double-antibody (i.e., penicillin and streptomycin) was added to make final concentration of penicillin at 100 units/ml and streptomycin at 100 ug/ml.
(§5) The experimental procedure is as follows:
(§6) (1) Take trypsin digested logarithmic phase cells and adjust the concentration of the cell suspension to 6×10^4 cell/ml, and then add 100 ul suspension of the cells under the test to each well on a 96-well plate and adjusted to a density of 6000 cells/well. The edge orifice is filled with sterile PBS.
(§7) (2) Placed the 96-well plate into a 37° C. incubator with 5% CO2 and incubate it overnight.
(§8) (3) Dissolve the test compounds in 200 ul DMSO to get a 5 mg/ml solution and dilute it to get 100 uM, 10 uM, 1 uM and 0.1 uM solutions. Add 100 ul of a solution to each of three repeat wells. Set a control well which has cells but without the compound of the present invention and a blank cell which contains no cells.
(§9) (4) Put the 96-well plate into a 37° C. incubator with 5% CO2 and incubate it for 48 hours. Examine the cells daily under a microscope.
(§10) (5) After being cultured for 48 hours, centrifuge and discard the culture liquid. Add 100 ul MTT working solution to each well, and continue incubating for 4 h.
(§11) (6) Terminate the culture, and carefully remove the culture medium. Then add 100 ul DMSO to each well and shake it at a low speed in a shaker for 10 min to make all crystals fully dissolved. The absorbance value of each well was measured by an enzyme-linked immunosorbent detector at the OD570 nm, and the inhibition rate of the different compounds with different concentration on cell growth can be obtained.

Panc1 cells = assay: MTT assay, compounds related to LD030 on Panc1 cells; assay type: cell-based, human; settings: 48 hours; for inhibition at 0.1 µM / inhibition at 1 µM / inhibition at 10 µM / inhibition at 100 µM: Homo sapiens, PANC-1, read-out: Effects on Panc1 Cells (inhibitory percentage)
Description: as §1, §2, §3, §4, §5, §6, §7, §8, §9, §10, §11

[1] = tested on: non-small lung cancer cell line A549; assay: MTT assay, compounds related to LD030 on A549 cells; assay type: cell-based; settings: 48 hours; for inhibition at 0.1 µM / inhibition at 1 µM / inhibition at 10 µM / inhibition at 100 µM: Homo sapiens, A549, read-out: Effects on A549 Cells (inhibitory percentage)
Description: as §1, §2, §3, §4, §5, §6, §7, §8, §9, §10, §11

Compound | inhibition at 0.1 µM (HepG2 cells; 0.1 μM) [%] | inhibition at 1 µM (HepG2 cells; 1 μM) [%] | inhibition at 10 µM (HepG2 cells; 10 μM) [%] | inhibition at 100 µM (HepG2 cells; 100 μM) [%] | inhibition at 0.1 µM (Panc1 cells; 0.1 μM) [%] | inhibition at 1 µM (Panc1 cells; 1 μM) [%] | inhibition at 10 µM (Panc1 cells; 10 μM) [%] | inhibition at 100 µM (Panc1 cells; 100 μM) [%] | inhibition at 0.1 µM ([1]; 0.1 μM) [%] | inhibition at 1 µM ([1]; 1 μM) [%] | inhibition at 10 µM ([1]; 10 μM) [%] | inhibition at 100 µM ([1]; 100 μM) [%] | Effects on HepG2 Cells (inhibitory percentage) (HepG2 cells; 0.1 μM) [%] | Effects on HepG2 Cells (inhibitory percentage) (HepG2 cells; 1 μM) [%] | Effects on HepG2 Cells (inhibitory percentage) (HepG2 cells; 10 μM) [%] | Effects on HepG2 Cells (inhibitory percentage) (HepG2 cells; 100 μM) [%] | Effects on Panc1 Cells (inhibitory percentage) (Panc1 cells; 0.1 μM) [%] | Effects on Panc1 Cells (inhibitory percentage) (Panc1 cells; 1 μM) [%] | Effects on Panc1 Cells (inhibitory percentage) (Panc1 cells; 10 μM) [%] | Effects on Panc1 Cells (inhibitory percentage) (Panc1 cells; 100 μM) [%] | further results
CC(=O)O[C@H]1CC[C@]2(C)C3CC[C@]4(C)C(C(C)CCC(O)C(C)(C)O)CC[C@@]4(C)C3CC[C@H]2C1(C)C (some centres unmarked) [LD 028] | 29.4 | 37.4 | 67.8 | 45.8 | -9.19 | -0.48 | -0.4 | 0.16 | 3.24 | 10 | -1.75 | 29.2 | – | – | – | – | – | – | – | – | –
CC(CCC(O)C(C)(C)O)C1CC[C@@]2(C)C34CC[C@H]5C(C)(C)[C@@H](O)CC[C@]5(C)C3(CC[C@]12C)O4 (some centres unmarked) [LD 024] | 22 | 14.3 | 5.86 | 2.1 | -7.19 | -8.39 | -13 | 6.95 | 1.38 | 6.04 | -0.22 | 34.6 | – | – | – | – | – | – | – | – | –
CC(=O)O[C@H]1CC[C@@]2(C)[C@@H](CCC34OC32CC[C@]2(C)C(C(C)CCC3OC3(C)C)CC[C@@]42C)C1(C)C (some centres unmarked) [LD 026-2] | 20.3 | 32.8 | 20.8 | 33.9 | 8.79 | 7.59 | 14.6 | 21.5 | 2.51 | 6.88 | -2.33 | 33 | – | – | – | – | – | – | – | – | –
CC(=O)O[C@H]1CC[C@@]2(C)[C@@H](CCC34OC32CC[C@]2(C)C(C(C)CCC(O)C(C)(C)O)CC[C@@]42C)C1(C)C (some centres unmarked) [LD027] | – | – | – | – | 2.21 | 10.1 | 16.7 | 28.7 | -1.4 | -4.98 | 12.9 | 58.6 | – | – | – | – | – | – | – | – | –
CC(=O)OC(CCC(C)C1CC[C@@]2(C)C34CC[C@H]5C(C)(C)[C@@H](OC(C)=O)CC[C@]5(C)C3(CC[C@]12C)O4)C(C)(C)OC(C)=O (some centres unmarked) [LD023] | – | – | – | – | – | – | – | – | – | – | – | – | 26.53 | 27.64 | 19.13 | 23.00 | −5.92 | −1.12 | −2.56 | 25.26 | Effects on A549 Cells (inhibitory percentage) ([1]; 0.1 μM): 8.01%; Effects on A549 Cells (inhibitory percentage) ([1]; 1 μM): 8.30%; Effects on A549 Cells (inhibitory percentage) ([1]; 10 μM): 6.11%; Effects on A549 Cells (inhibitory percentage) ([1]; 100 μM): 12.70%
CC(=O)OC(CCC(C)C1CC[C@@]2(C)C3=C(CC[C@]12C)[C@@]1(C)CC[C@H](OC(C)=O)C(C)(C)[C@@H]1CC3)C(C)(C)OC(C)=O (some centres unmarked) [LD 022] | – | – | – | – | – | – | – | – | – | – | – | – | 20.67 | 31.18 | 24.88 | 24.54 | −6.95 | −5.28 | −2.48 | −6.24 | Effects on A549 Cells (inhibitory percentage) ([1]; 0.1 μM): 4.73%; Effects on A549 Cells (inhibitory percentage) ([1]; 1 μM): 8.99%; Effects on A549 Cells (inhibitory percentage) ([1]; 10 μM): 6.92%; Effects on A549 Cells (inhibitory percentage) ([1]; 100 μM): 35.89%
